Earlier results as cited in patent US20150272891A1, “DOSAGE FORMS COMPRISING APIXABAN AND MATRIX FORMER” (RATIOPHARM GMBH, priority 2012, published 2015).

Conditions: compared with N-1 form

COc1ccc(-n2nc(C(N)=O)c3c2C(=O)N(c2ccc(N4CCCCC4=O)cc2)CC3)cc1 [H2-2 form, 1-(4-methoxyphenyl)-7-oxo-6-[4-(2-oxopiperidin-1-yl)phenyl]-4,5,6,7-tetrahydro-1H-pyrazolo[3,4-c]pyridine-3-carbamide]
stability of polymorphous form: less stable than the granular, non-solvate N-1 form
